Assay [1] is described as follows: Anticancer activity against human PHMLER expressing CD24low phenotype cells assessed as reduction in cell viability incubated for 72 hrs. The assay is classed as functional, cell-based.
The subject of assay [2] is HT-1080. As to the kind of experiment: Induction of ferroptosis in human HT-1080 cells assessed as inhibition of (cystine-glutamate antiporter) system Xc- mediated cystine transport. The format is functional, cell-based.
A further assay deals with NCI-N87. As to the kind of experiment: Anticancer activity against human NCI-N87 cells assessed as inhibition of cell viability incubated for 24 hrs by CCK-8 assay. The format is functional, cell-based. The following applies: NCI-N87, 24 h. Background: Tetrazolium dyes change colour on reduction, which living cells bring about.
A further assay deals with AGS. As to the kind of experiment: Anticancer activity against human AGS cells assessed as inhibition of cell viability incubated for 24 hrs by CCK-8 assay. The assay is classed as functional, cell-based.
The subject of assay [3] is MDA-MB-231. As to the kind of experiment: Antiproliferative activity against human MDA-MB-231 cells assessed as inhibition of cell viability incubated for 72 hrs by MTT assay. The following applies: MDA-MB-231, 72 h. The format is functional, cell-based.
In the next assay the test system is MEF. Description: Antitumor activity against mouse MEF cells xenografted in nude mouse assessed as reduction in tumor weight at 40 mg/kg, po twice daily for 7 days relative to control. The assay is classed as functional. Details: scale not given: the % may be the effect or the level left. The following applies: time 7 day.
A further assay deals with HCT-116. Description: Antitumor activity against human HCT-116 cells assessed as reduction in cell viability incubated for 48 hrs by CCK8 assay. Conditions: HCT-116, 48 h. The assay is classed as functional, cell-based.
Assay [4] has as its system SW480. As to the kind of experiment: Antitumor activity against human SW480 cells assessed as reduction in cell viability incubated for 48 hrs by CCK8 assay. The assay is classed as functional, cell-based. Conditions: SW480, 48 h.
The test system of the next assay is RKO. As to the kind of experiment: Antitumor activity against human RKO cells assessed as reduction in cell viability incubated for 48 hrs by CCK8 assay. The format is functional, cell-based.
In a further assay the test system is SU-DHL-16. Description: Anticancer activity against human SU-DHL-16 cells assessed as reduction in cell viability incubated for 24 hrs by CellTiter-Glo luminescent assay. The assay is classed as functional, cell-based. Conditions: SU-DHL-16, 24 h. On the technique in general: Cellular ATP, detected with luciferase, serves as a proxy for viable cell number.
In a further assay the test system is SU-DHL10. Description: Anticancer activity against human SU-DHL-10 cells assessed as reduction in cell viability incubated for 24 hrs by CellTiter-Glo luminescent assay. The format is functional, cell-based. The following applies: SU-DHL10, 24 h.
The subject of a further assay is SU-DHL-6. As to the kind of experiment: Anticancer activity against human SU-DHL-6 cells assessed as reduction in cell viability incubated for 24 hrs by CellTiter-Glo luminescent assay. The assay is classed as functional, cell-based. Conditions: SU-DHL-6, 24 h.
For a further assay, the system named is SU-DHL-5. Description: Anticancer activity against human SU-DHL-5 cells assessed as reduction in cell viability incubated for 24 hrs by CellTiter-Glo luminescent assay. The format is functional, cell-based. The following applies: SU-DHL-5, 24 h.
Another assay concerns DOHH-2. As to the kind of experiment: Anticancer activity against human DOHH-2 cells assessed as reduction in cell viability incubated for 24 hrs by CellTiter-Glo luminescent assay. The format is functional, cell-based. Conditions: DOHH-2, 24 h.
Assay [5] in a line: Anticancer activity against human BJeLR cells assessed as reduction in cell viability incubated for 24 hrs by CellTiter-Glo luminescent assay. The format is functional, cell-based.
Assay [6] can be described thus: Anticancer activity against human OCI-Ly8 cells assessed as reduction in cell viability incubated for 24 hrs by CellTiter-Glo luminescent assay. The following applies: OCI-Ly8, 24 h. The assay is classed as functional, cell-based.
The subject of another assay is SU-DHL-2. Description: Anticancer activity against human SUDHL2 cells assessed as reduction in cell viability incubated for 24 hrs by CellTiter-Glo luminescent assay. The assay is classed as functional, cell-based. Conditions: SU-DHL-2, 24 h.
The next assay deals with Huh-7. Description: Antitumor activity against human Huh-7 cells assessed as inhibition of cell viability. The format is functional, cell-based.
The next assay concerns HepG2. As to the kind of experiment: Antitumor activity against human HepG2 cells assessed as inhibition of cell viability. The assay is classed as functional, cell-based.
The subject of the next assay is Hep 3B2. As to the kind of experiment: Antitumor activity against human Hep3B cells assessed as inhibition of cell viability. The assay is classed as functional, cell-based.
Assay [7] concerns HT-1080. Description: Antitumor activity against human HT-1080 cells assessed as inhibition of cell viability. The assay is classed as functional, cell-based.
The test system of another assay is SW1990. Description: Anticancer activity against human SW1990 cells assessed as reduction in cell viability incubated for 48 hrs by MTT assay. The assay is classed as functional, cell-based. The following applies: SW1990, 48 h.
In the next assay the test system is BXPC-3. As to the kind of experiment: Anticancer activity against human BXPC-3 cells assessed as reduction in cell viability incubated for 48 hrs by MTT assay. Conditions: BXPC-3, 48 h. The assay is classed as functional, cell-based.
Another assay concerns HL-60. Description: Anticancer activity against human HL-60 cells assessed as reduction in cell viability incubated for 72 hrs by MTT assay. The format is functional, cell-based. Conditions: HL-60, 72 h.
For the next assay, the system named is HEp-2. As to the kind of experiment: Anticancer activity against human HEp-2 cells assessed as reduction in cell viability incubated for 72 hrs by MTT assay. The assay is classed as functional, cell-based. The following applies: HEp-2, 72 h.
A short description of assay [8]: Anticancer activity against human U87 cells assessed as reduction in cell viability incubated for 72 hrs by MTT assay. The format is functional, cell-based, U-87MG ATCC. Conditions: U-87 MG.
The next assay relates to A 172. Description: Anticancer activity against human A-172 cells assessed as reduction in cell viability incubated for 72 hrs by MTT assay. The assay is classed as functional, cell-based. Conditions: A 172, 72 h.
The test system of the next assay is CNE. Description: Anticancer activity against human CNE cells assessed as reduction in cell viability incubated for 72 hrs by MTT assay. The assay is classed as functional, cell-based.
For a further assay, the system named is THP-1. As to the kind of experiment: Anticancer activity against human THP-1 cells assessed as reduction in cell viability incubated for 72 hrs by MTT assay. The format is functional, cell-based. Conditions: THP-1, 72 h.
The test system of assay [9] is MDA-MB-231. As to the kind of experiment: Anticancer activity against human MDA-MB-231 cells assessed as inhibition of cell viability incubated for 48 hrs by CCK-8 assay. The format is functional, cell-based. The following applies: MDA-MB-231, 48 h.
The subject of the next assay is MCF7. Description: Anticancer activity against human MCF7 cells assessed as inhibition of cell viability incubated for 48 hrs by CCK-8 assay. The format is functional, cell-based. The following applies: MCF7, 48 h.
For assay [10], the system named is SW480. As to the kind of experiment: Anticancer activity against human SW480 cells assessed as reduction in cell viability incubated for 24 hrs in presence of 10% FBS by CCK8 assay. The format is functional, cell-based. Conditions: SW480, 24 h.

Consider 13 compounds from ChEMBL document CHEMBL5247631, “Ferroptosis-related small-molecule compounds in cancer therapy: Strategies and applications” (Eur J Med Chem, 2022).

pIC50: −log10 of the molar value. Where only a bound is given, the exact number is not on record here.

As to `C#CCN[C@@H]1C=C[C@]2(O[C@H]([C@@H](CC)C(=O)[C@@H](C)[C@@H](O)[C@H](C)[C@@H]3O[C@@H]([C@@H](CC)C(=O)O)CC[C@@H]3C)[C@@H](C)C[C@H]2C)O[C@@]12CC[C@@](C)([C@H]1CC[C@](O)(CC)[C@H](C)O1)O2`, the pIC50 in assay [1] is 7.00.
In the case of `C#Cc1nc(C2=C(C)[C@H](O)CC2)cs1`, in the assay with HT-1080 [2], the pIC50 is 4.12.
As for `C[C@@H]1CC[C@@]2(OC1)O[C@H]1C[C@H]3[C@@H]4CC=C5C[C@@H](O)C[C@@H](O[C@H]6O[C@H](C)[C@H](O)[C@H](O)[C@H]6O[C@@H]6O[C@@H](C)[C@H](O)[C@@H](O)[C@H]6O)[C@]5(C)[C@H]4CC[C@]3(C)[C@H]1[C@@H]2C`, the pIC50 is 4.67 with NCI-N87 and 4.99 in the assay with AGS.
As to `C=C1C(=O)O[C@H]2[C@H]1CC/C(COC(=O)/C=C/c1c(OC)cccc1OC)=C\CC[C@@]1(C)O[C@@H]21`, the pIC50 in the assay with MDA-MB-231 [3] was 6.47.
With `C[C@H](CN1CCCC1)C(=O)c1ccc(C(F)(F)F)cc1` [LANPERISONE], the Activity with MEF came to 37%.
`C=CCc1ccc(O)c(-c2ccc(O)c(CC=C)c2)c1` [HONOKIOL]: the pIC50 was 4.32 in the assay with HCT-116, 4.82 with SW480 [4] and 4.94 in the assay with RKO.
In the case of `CC[C@@H](C(=O)[C@@H](C)[C@@H](O)[C@H](C)[C@@H]1O[C@@H]([C@@H](CC)C(=O)O)CC[C@@H]1C)[C@H]1O[C@]2(C=C[C@@H](O)[C@]3(CC[C@@](C)([C@H]4CC[C@](O)(CC)[C@H](C)O4)O3)O2)[C@H](C)C[C@@H]1C` [SALINOMYCIN], the pIC50 in assay [1] was 6.00.
For `CC(C)Oc1ccc(C(=O)Cn2ccnc2)cc1-n1c(CN2CCN(C(=O)COc3ccc(Cl)cc3)CC2)nc2ccccc2c1=O`, the pIC50 with SU-DHL-16 was 7.92; in the assay with SU-DHL10, 8.40; with SU-DHL-6, 9.00; in the assay with SU-DHL-5, 9.00; in the assay with DOHH-2, 7.85; in [5] it was 8.52. Besides, the results for the pIC50 (in [6]; in the assay on SU-DHL-2) were 9.00 and 7.68, respectively.
Regarding `CNC(=O)c1cc(Oc2ccc(NC(=O)Nc3ccc(Cl)c(C(F)(F)F)c3)cc2)ccn1` [SORAFENIB], the pIC50 with Huh-7, in the assay with HepG2, with Hep 3B2 and in the assay on HT-1080 [7] was above 5.00 in each case.
On to `C[C@@H]1CC[C@@]2(OC1)O[C@H]1C[C@H]3[C@@H]4CC=C5C[C@@H](O)C[C@@H](O)[C@]5(C)[C@H]4CC[C@]3(C)[C@H]1[C@@H]2C` [RUSCOGENIN], for which the results for the pIC50 with SW1990 and in the assay with BXPC-3 were 5.09 and 5.14, respectively.
Regarding `C[C@H]1[C@@H](O)O[C@@H]2O[C@@]3(C)CC[C@H]4[C@H](C)CC[C@@H]1[C@@]24OO3` [ARTENIMOL], the pIC50 is 5.17 in the assay on HL-60; 4.74 in the assay on HEp-2; 4.30 in [8]; 4.18 in the assay on A 172; 4.74 with CNE; 5.04 with THP-1.
For `COc1cc(/C=C/C(=O)CC(=O)/C=C/c2ccc(O)c(OC)c2)ccc1O` [CURCUMIN], the pIC50 in the assay with MDA-MB-231 [9] is 4.27; in the assay on MCF7 it was 4.38.
For `CCC(C)/C=C(\C)[C@H]1C(C)=C[C@@]2(C)C[C@@H](C)CC[C@@H]2[C@H]1C(=O)C1=C/C(=C/c2ccc(O)cc2)NC1=O` (stereo partly drawn) [TALAROCONVOLUTIN A], the pIC50 in the assay on SW480 [10] is 5.09.

What is called pIC50 is the IC50 on a negative log10 scale, so that one unit is a factor of ten.
